IC50 data for 26 molecules are collected here from patent US10576062B2, “Carbamoyloxymethyl triazole cyclohexyl acids as LPA antagonists” (Bristol-Myers Squibb Company, priority 2016, dated 2020).

In the experiment the target is T1, human LPA1 (Homo sapiens, UniProt Q92633).
T1 construct: expressed in transfected cells; host or cells: Chinese hamster ovary (CHO) cells
The experiment in a line: LPA1 functional antagonist assay (LPA-induced calcium flux). The following applies: read-out: hLPA1 IC50. It is filed as cell-based. Put shortly:
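CHO cells overexpressing human LPA1, loaded with calcium dye 30 min at 37° C, were preincubated 20 min at room temperature with compound (0.08 nM–5 μM, 0.5% DMSO) in HBSS/20 mM HEPES/0.1% fatty acid-free BSA.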
(In general: A change in cytosolic calcium serves as a functional read-out for many receptors and channels.)

Where [1] appears, read: CHO cells overexpressing human LPA1, inhibition of calcium flux induced by 10 nM LPA.

Like-named read-outs stand apart in the source and are kept apart here.

T1 sequence (Q92633 whole entry): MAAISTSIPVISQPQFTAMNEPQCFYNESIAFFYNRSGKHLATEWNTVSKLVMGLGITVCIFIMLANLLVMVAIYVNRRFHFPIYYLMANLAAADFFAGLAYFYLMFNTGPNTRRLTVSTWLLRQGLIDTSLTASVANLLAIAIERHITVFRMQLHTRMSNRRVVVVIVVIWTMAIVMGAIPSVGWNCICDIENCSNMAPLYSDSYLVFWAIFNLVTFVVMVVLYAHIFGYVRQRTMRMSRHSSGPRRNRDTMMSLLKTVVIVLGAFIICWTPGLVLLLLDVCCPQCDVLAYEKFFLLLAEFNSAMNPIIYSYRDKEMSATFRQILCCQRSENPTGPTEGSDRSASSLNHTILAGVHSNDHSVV

Take `Cc1nc(-c2nnn(C)c2COC(=O)N(C)C2(c3ccccc3)CC2)ccc1O[C@H]1CCC[C@H](C(=O)O)C1` [Example 100, (1S,3S)-3-((2-methyl-6-(1-methyl-5-(((methyl(1-phenylcyclopropyl)carbamoyl)oxy)methyl)-1H-1,2,3-triazol-4-yl)pyridin-3-yl)oxy)cyclohexane-1-carboxylic acid]: the IC50 is 70 nM. Consider `CCCC(C)N(C)C(=O)OCc1c(-c2ccc(O[C@H]3CCC[C@H](C(=O)O)C3)c(C)c2)nnn1C` (mixture of isomers) [Example 39, (1S,3S)-3-(2-methyl-4-(1-methyl-5-(((methyl(pentan-2-yl)carbamoyl)oxy)methyl)-1H-1,2,3-triazol-4-yl)phenoxy)cyclohexane-1-carboxylic acid], for which the IC50 turned out to be 23 nM.

In the case of `CCCC(C)N(C)C(=O)OCc1c(-c2ccc(O[C@H]3CCC[C@H](C(=O)O)C3)cc2)nnn1C` (mixture of isomers) [Example 57, trans-3-(4-(1-methyl-5-(((methyl(pentan-2-yl)carbamoyl)oxy)methyl)-1H-1,2,3-triazol-4-yl)phenoxy)cyclohexane-1-carboxylic acid], the IC50 was found to be 142 nM. As for `CN(Cc1ccccc1)C(=O)OCc1c(-c2ccc(O[C@H]3CCC[C@H](C(=O)O)C3)cc2)nnn1C` (racemic) [Example 60, (rac)-trans-3-(4-(5-(((benzyl(methyl)carbamoyl)oxy)methyl)-1-methyl-1H-1,2,3-triazol-4-yl)phenoxy)cyclohexane-1-carboxylic acid], the half-maximal inhibitory concentration (IC50) was 130 nM. For `Cc1nc(-c2nnn(C)c2COC(=O)N(C)CC2CC(F)(F)C2)ccc1O[C@H]1CCC[C@H](C(=O)O)C1` [Example 145, (1S,3S)-3-((6-(5-(((((3,3-difluoro-cyclobutyl)methyl)(methyl)carbamoyl)oxy)methyl)-1-methyl-1H-1,2,3-triazol-4-yl)-2-methylpyridin-3-yl)oxy)cyclohexane-1-carboxylic acid], the IC50 stood at 94 nM. With `CCC(CC)N(C)C(=O)OCc1c(-c2ccc(O[C@H]3CCC[C@H](C(=O)O)C3)c(C)n2)nnn1C` [Example 83, (1S,3S)-3-((2-Methyl-6-(1-methyl-5-(((methyl(pentan-3-yl)carbamoyl)oxy)methyl)-1H-1,2,3-triazol-4-yl)pyridin-3-yl)oxy)cyclohexanecarboxylic acid], the IC50 worked out at 92 nM.

As to `COCc1nc(-c2nnn(C)c2COC(=O)N(C)C2CCCC2)ccc1O[C@H]1CCC[C@H](C(=O)O)C1` [Example 287, (1S,3S)-3-((6-(5-(((cyclopentyl(methyl)carbamoyl)oxy)methyl)-1-methyl-1H-1,2,3-triazol-4-yl)-2-(methoxymethyl)pyridin-3-yl)oxy)cyclohexane-1-carboxylic acid], the IC50 under setting [1] was found to be 118 nM. As to `CN(C(=O)OCc1c(-c2ccc(O[C@H]3CCC[C@H](C(=O)O)C3)c(C(F)F)n2)nnn1C)C1CCCC1` [Example 281, (1S,3S)-3-((6-(5-(((cyclopentyl(methyl)carbamoyl)oxy)methyl)-1-methyl-1H-1,2,3-triazol-4-yl)-2-(difluoromethyl)pyridin-3-yl)oxy)cyclohexane-1-carboxylic acid], the IC50 under setting [1] worked out at 35 nM.

On to `COCc1nc(-c2nnn(C)c2COC(=O)N(C)CC2CCC2)ccc1O[C@H]1CCC[C@H](C(=O)O)C1` [Example 268, (1S,3 S)-3-((6-(5-((((cyclobutylmethyl)(methyl)carbamoyl)oxy)methyl)-1-methyl-1H-1,2,3-triazol-4-yl)-2-(methoxymethyl)pyridin-3-yl)oxy)cyclohexane-1-carboxylic Acid], for which, under setting [1], the IC50 stood at 103 nM. `Cc1nc(-c2nnn(C)c2CCOC(=O)N(C)C2CCC2)ccc1O[C@H]1CCC[C@H](C(=O)O)C1` [Example 247, (1S,3S)-3-((6-(5-(2-((Cyclobutyl(methyl)carbamoyl)oxy)ethyl)-1-methyl-1H-1,2,3-triazol-4-yl)-2-methylpyridin-3-yl)oxy)cyclo-hexane-1-carboxylic acid]: under setting [1], the IC50 stood at 41 nM. As for `Cc1nc(-c2nnn(C)c2COC(=O)N2CCC(CC3CC3)C2)ccc1O[C@H]1CCC[C@H](C(=O)O)C1` (mixture of isomers) [Example 150, (1S,3S)-3-((6-(5-(((3-(cyclopropylmethyl)pyrrolidine-1-carbonyl)oxy)methyl)-1-methyl-1H-1,2,3-triazol-4-yl)-2-methylpyridin-3-yl)oxy)cyclohexane-1-carboxylic acid], the IC50 was found to be 91 nM. Consider `CCCCN(C)C(=O)OCc1c(-c2ccc(O[C@H]3CCC[C@H](C(=O)O)C3)c(CC)n2)nnn1C` [Example 199, (1S,3S)-3-((6-(5-(((butyl(methyl)carbamoyl)oxy)methyl)-1-methyl-1H-1,2,3-triazol-4-yl)-2-ethylpyridin-3-yl)oxy)cyclohexane-1-carboxylic acid], for which, under setting [1], the IC50 is 7 nM. As for `CCCC(C)(C)N(C)C(=O)OCc1c(-c2ccc(O[C@H]3CCC[C@H](C(=O)O)C3)c(C)n2)nnn1C` [Example 84, (1S,3S)-3-((2-methyl-6-(1-methyl-5-(((methyl(2-methylpentan-2-yl)carbamoyl)oxy)methyl)-1H-1,2,3-triazol-4-yl)pyridin-3-yl)oxy)cyclohexanecarboxylic acid], the IC50 came out at 69 nM. In the case of `Cc1nc(-c2nnn(C)c2COC(=O)N(C)CC2CC2(C)C)ccc1O[C@H]1CCC[C@H](C(=O)O)C1` (mixture of isomers) [Example 184, (1S,3S)-3-((6-(5-(((((2,2-dimethylcyclopropyl)methyl)(methyl)carbamoyl)oxy)methyl)-1-methyl-1H-1,2,3-triazol-4-yl)-2-methylpyridin-3-yl)oxy)cyclohexane-1-carboxylic acid], for the setting “human LPA1”, the IC50 amounted to 37 nM. As to `CC(C1CCC1)N(C)C(=O)OCc1c(-c2ccc(O[C@H]3CCC[C@H](C(=O)O)C3)cc2)nnn1C` (single isomer, unassigned) [Example 67, trans-3-(4-(5-((((1-cyclobutylethyl)(methyl)carbamoyl)oxy)methyl)-1-methyl-1H-1,2,3-triazol-4-yl)phenoxy)cyclohexane-1-carboxylic acid], the IC50 is 109 nM. Still for that read-out and setting: to `CN(C(=O)OCc1c(-c2ccc(O[C@@H]3CCC[C@@H](C(=O)NS(C)(=O)=O)C3)cc2)nnn1C)C1CCCC1` [Example 72, (1-Methyl-4-(4-(((1R,3R)-3-((methylsulfonyl)carbamoyl)cyclohexyl)oxy)phenyl)-1H-1,2,3-triazol-5-yl)methyl cyclopentyl(methyl)carbamate] belongs 2780 nM. As for `CCc1nc(-c2nnn(C)c2COC(=O)N(C)CC(C)C)ccc1O[C@H]1CCC[C@H](C(=O)O)C1` [Example 197, (1S,3S)-3-((2-ethyl-6-(5-(((isobutyl(methyl)carbamoyl)oxy)methyl)-1-methyl-1H-1,2,3-triazol-4-yl)pyridin-3-yl)oxy)cyclohexane-1-carboxylic acid], under setting [1], the IC50 turned out to be 27 nM. Turning to `Cc1nc(-c2nnn(C)c2COC(=O)N(C)C2CC3(CCC3)C2)ccc1O[C@H]1CCCC(C(=O)O)C1` (stereo in doubt) [Example 158, (1R,3S)-3-((2-methyl-6-(1-methyl-5-(((methyl(spiro[3.3]heptan-2-yl)carbamoyl)oxy)methyl)-1H-1,2,3-triazol-4-yl)pyridin-3-yl)oxy)cyclohexane-1-carboxylic acid], the IC50 (human LPA1) was determined as 32 nM.

With `CN(CC1CC1)C(=O)OCc1c(-c2cnc(O[C@H]3CCC[C@H](C(=O)O)C3)c(C(F)(F)F)c2)nnn1C` [Example 237, (1S,3S)-3-((5-(5-((((cyclopropylmethyl)(methyl)carbamoyl)oxy)methyl)-1-methyl-1H-1,2,3-triazol-4-yl)-3-(trifluoromethyl)pyridin-2-yl)oxy)cyclohexane-1-carboxylic acid], under setting [1], the IC50 turned out to be 2400 nM.

With `Cc1nc(-c2nnn(C)c2COC(=O)N(C)C2CCC2)ccc1O[C@H]1CCC[C@H](C(=O)O)C1` [Example 136, (1S,3S)-3-((6-(5-(((cyclobutyl(methyl)carbamoyl)oxy)methyl)-1-methyl-1H-1,2,3-triazol-4-yl)-2-methylpyridin-3-yl)oxy)cyclohexane-1-carboxylic acid], the IC50 was 36 nM.

`CCCCN(C)C(=O)OCc1c(-c2ccc(O[C@H]3CCC[C@H](C(=O)O)C3)c(COC)n2)nnn1C` [Example 284]: the IC50 under setting [1] turned out to be 48 nM. Still for that read-out and setting: to `CN(CC1CCC1)C(=O)OCc1c(-c2cnc(O[C@H]3CCC[C@H](C(=O)O)C3)c(C(F)(F)F)c2)nnn1C` [Example 239, (1S,3S)-3-((5-(5-((((cyclobutylmethyl)(methyl)carbamoyl)oxy)methyl)-1-methyl-1H-1,2,3-triazol-4-yl)-3-(trifluoromethyl)pyridin-2-yl)oxy)cyclohexane-1-carboxylic acid] belongs 440 nM. `CCC(C1CCC1)N(C)C(=O)OCc1c(-c2ccc(O[C@H]3CCC[C@H](C(=O)O)C3)c(C)n2)nnn1C` (mixture of isomers) [Example 99, (1S,3S)-3-((6-(5-((((1-cyclobutylpropyl)(methyl)carbamoyl)oxy)methyl)-1-methyl-1H-1,2,3-triazol-4-yl)-2-methylpyridin-3-yl)oxy)cyclohexane-1-carboxylic acid]: the IC50 was found to be 144 nM. For `CCCN(C)C(=O)OCc1c(-c2ccc(O[C@H]3CCC[C@H](C(=O)O)C3)c(OC)n2)nnn1C` [Example 272, (1S,3 S)-3-((2-Methoxy-6-(1-methyl-5-(((methyl(propyl)carbamoyl)oxy)methyl)-1H-1,2,3-triazol-4-yl)pyridin-3-yl)oxy)cyclohexane-1-carboxylic Acid], the IC50 under setting [1] is 4 nM. As for `CN(C(=O)OCc1c(-c2ccc(O[C@H]3CCC[C@H](C(=O)O)C3)c(F)c2)nnn1C)C1CCCC1` [Example 44, (1S,3S)-3-(4-(5-(((cyclopentyl(methyl)carbamoyl)oxy)methyl)-1-methyl-1H-1,2,3-triazol-4-yl)-2-fluorophenoxy)cyclohexane-1-carboxylic acid], the IC50 stood at 6 nM. `CN(CC1CCC1)C(=O)OCc1c(-c2ccc(O[C@H]3CCC[C@](F)(C(=O)O)C3)cn2)nnn1C` (racemic) [Example 90]: the IC50 worked out at 14 nM.

Broadly, the IC50 is the midpoint of a concentration-inhibition curve.
